Results from patent US20070197632A1, “Aminocyclohexyl ether compounds and uses thereof” (Cardiome Pharma Corp, priority 2003, published 2007).

Test system: conscious rats
Assay: Determination of CNS toxicity: convulsions in conscious rats under intravenous infusion
Details: Table 5, comparative example compounds; for convulsion dose: minimum iv infusion rate at which partial or complete convulsions are observed; for cum conv dose: total amount of drug infused when convulsions are first observed

SMILES | convulsion dose [µmol/kg/min] | cum conv dose [µmol/kg]
Cl.Clc1cccc(Cl)c1CCOC1CCCC[C@H]1N1CCSC1 (stereo partly drawn) [Comparative Example Compound 48, (1R,2R)/(1S,2S)-2-(3-thiazolidinyl)-1-(2,6-dichlorophenethoxy)cyclo-hexane monohydrochloride] | 43 | 
Cl.OC1CCN(C2CCCC[C@@H]2OCCc2c(Cl)cccc2Cl)C1 (stereo partly drawn) [Comparative Example Compound 46, (1R,2R)/(1S,2S)-2-(3-hydroxypyrrolidinyl)-1-(2,6-dichlorophenethoxy)cyclo-hexane monohydrochloride] | 8 | 
c1ccc2c(CCO[C@H]3CCCCC3N3CCOCC3)csc2c1 (some centres unmarked) [Comparative Example Compound 36] | 8 | 65
Cl.O=C1CCN(C2CCCC[C@@H]2OCCc2c(Cl)cccc2Cl)C1 (stereo partly drawn) [Comparative Example Compound 41, (1R,2R)/(1S,2S)-2-(3-ketopyrrolidinyl)-1-(2,6-dichlorophenethoxy)cyclo-hexane monohydrochloride] | 32 | 190
Cl.FC(F)(F)c1ccccc1CCO[C@H]1CCCC[C@H]1N1CCOCC1 (racemic) [Comparative Example Compound 42, (1R,2S)/(1S,2R)-2-(4-morpholinyl)-1-[(2-trifluoromethyl)-phenethoxy]-cyclohexane monohydrochloride] | 16 | 
Cl.OC1CCN(C2CCCC[C@@H]2OCCc2ccccc2Br)C1 (stereo partly drawn) [Comparative Example Compound 24, (3R)/(3S)-1-{(1R,2R)/(1S,2S)-2-[2-(2-bromophenyl)-ethoxy]cyclohexyl}-pyrrolidin-3-ol hydrochloride] | 13 | 67
Cl.O[C@@H]1CCN(C2CCCC[C@@H]2OCCc2ccccc2C(F)(F)F)C1 (some centres unmarked) [Comparative Example Compound 27] | 16 | 
Brc1ccc(CCO[C@H]2CCCCC2N2CCOCC2)cc1 (some centres unmarked) [Comparative Example Compound 32] | 12 | 91
Brc1cccc(CCO[C@H]2CCCCC2N2CCOCC2)c1 (stereo partly drawn) [Comparative Example Compound 38, (1R,2R)/(1S,2S)-[2-(4-morpholinyl)-1-(3-bromophenethoxy)]-cyclohexane] | 16 | 
c1cc(CCO[C@H]2CCCCC2N2CCOCC2)c2ccsc2c1 (some centres unmarked) [Comparative Example Compound 37] | 8 | 54
CC(=O)OC1CCN([C@@H]2CCCCC2OCCc2cccc3ccccc23)C1.Cl (stereo partly drawn) [Comparative Example Compound 43, (1R,2R)/(1S,2S)-2-(3-acetoxypyrrolidinyl)-1-(1-naphthenethoxy)cyclo-hexane monohydrochloride] | 8 | 65
Cl.OC1CCN(C2CCCC[C@@H]2OCCn2ccc3ccccc32)C1 (some centres unmarked) [Comparative Example Compound 28] | 16 | 
Cl.OC1CCN(C2CCCC[C@@H]2OCCc2c(Cl)cccc2Cl)C1 (stereo partly drawn) [Comparative Example Compound 23, (3R)/(3S)-1-{(1R,2R)/(1S,2S)-2-[2-(2,6-dichlorophenyl)-ethoxy]cyclohexyl}-pyrrolidin-3-ol hydrochloride] | 8 | 65
COc1ccc(CCOC2CCCC[C@H]2N2CCN(C(=O)Cc3ccc(OC)c(OC)c3)CC2)cc1OC.Cl.Cl (stereo partly drawn) [Comparative Example Compound 22, 1-[(3,4-dimethoxyphenyl)acetyl]-4-{(1R,2R)/(1S,2S)-2-[2-(3,4-dimethoxyphenyl)-ethoxy]cyclohexyl}-piperazine hydrochloride] | 21.33 | 133
COc1ccc(CCO[C@H]2CCCCC2N2CCOCC2)cc1OC (stereo partly drawn) [Comparative Example Compound 35, (1R,2R)/(1S,2S)-[2-(4-morpholinyl)-1-(3,4-dimethoxy-phenethoxy)]-cyclohexane] | 16 | 
